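In this assay, cells in 96-well plates receive the compound at five concentrations for 48 hours. Endpoints are linearly interpolated between the surrounding concentrations. GI50: concentration for 50% inhibition of growth.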 Active and inactive are the calls of the source. No stated cut-off is given here; in the data, active = GI50 up to about 1.1 µM and inactive = higher.
Key:
Test in all cases: NCI tumour cell line growth inhibition, 48 h
OVCAR-8 = system: OVCAR-8
PC-3 = system: PC-3
OVCAR-5 = system: OVCAR-5
SW-620 = system: SW-620
MDA-MB-435 = system: MDA-MB-435
KM12 = system: KM12
MCF7 = system: MCF7
SK-MEL-2 = system: SK-MEL-2
HCT-15 = system: HCT-15
HOP-62 = system: HOP-62
CCRF-CEM = system: CCRF-CEM
A498 = system: A498
IGROV-1 = system: IGROV-1
K562 = system: K562
SK-MEL-28 = system: SK-MEL-28
HCC 2998 = system: HCC 2998
MDA-MB-231 = system: MDA-MB-231
OVCAR-4 = system: OVCAR-4
SN12C = system: SN12C
RXF 393 = system: RXF 393

Structure (SMILES)	GI50 (OVCAR-8)	GI50 (PC-3)	GI50 (OVCAR-5)	GI50 (SW-620)	GI50 (MDA-MB-435)	GI50 (KM12)	GI50 (MCF7)	GI50 (SK-MEL-2)	GI50 (HCT-15) [µM]	GI50 (HOP-62)	GI50 (CCRF-CEM)	GI50 (A498)	GI50 (IGROV-1)	GI50 (K562)	GI50 (SK-MEL-28)	GI50 (HCC 2998)	GI50 (MDA-MB-231)	GI50 (OVCAR-4)	GI50 (SN12C)	GI50 (RXF 393)
O=C(CC(O)(C(F)(F)F)C(F)(F)F)C(CCCl)C(O)(C(F)(F)F)C(F)(F)F (stereo unspecified)	27.9 µM (inactive)	15.5 µM (inactive)	44.2 µM (inactive)	51.6 µM (inactive)	62.7 µM (inactive)	42.3 µM (inactive)	85.1 µM (inactive)	36.2 µM (inactive)	34.3	33.3 µM (inactive)	39.9 µM (inactive)	25.4 µM (inactive)	52.5 µM (inactive)	39.7 µM (inactive)	57.3 µM (inactive)	43.8 µM (inactive)	65 µM (inactive)	49.2 µM (inactive)	18.9 µM (inactive)	21.1 µM (inactive)
N#Cc1c2c(c(Nc3ccc(F)cc3)n3c1nc1ccccc13)CCC2	2.36 µM (inactive)	5.14 µM (inactive)	5.02 µM (inactive)	2.43 µM (inactive)	3.25 µM (inactive)	6.55 µM (inactive)	3.32 µM (inactive)	14.3 µM (inactive)	3.99	3.03 µM (inactive)	0.791 µM (active)	12.9 µM (inactive)	3.52 µM (inactive)	9.44 µM (inactive)	9.27 µM (inactive)	18.4 µM (inactive)	3.61 µM (inactive)	10 µM (inactive)	2.1 µM (inactive)	2.14 µM (inactive)
COc1ccc(/C=C/C(=O)Oc2cc(O)cc(O)c2)cc1	28.2 µM (inactive)	43.6 µM (inactive)	> 100 µM (inactive)	41.1 µM (inactive)	61.9 µM (inactive)	14.2 µM (inactive)	19.5 µM (inactive)	> 100 µM (inactive)	16.9	17.3 µM (inactive)	11.5 µM (inactive)	> 100 µM (inactive)	16.5 µM (inactive)	22.5 µM (inactive)	> 100 µM (inactive)	33 µM (inactive)	35.7 µM (inactive)	85.5 µM (inactive)	36.4 µM (inactive)	72.4 µM (inactive)
Cc1ccc2c(c1)C=CC(C#N)N2C(=O)Oc1ccccc1 (stereo unspecified)	17.4 µM (inactive)	26.3 µM (inactive)	61.4 µM (inactive)	30.5 µM (inactive)	14.5 µM (inactive)	17.1 µM (inactive)	19.7 µM (inactive)	22.7 µM (inactive)	21.1		17.2 µM (inactive)	20.6 µM (inactive)	36 µM (inactive)	23.7 µM (inactive)	77.8 µM (inactive)	16.6 µM (inactive)	38.9 µM (inactive)	24.7 µM (inactive)	35.8 µM (inactive)	37.7 µM (inactive)
O=C1c2ccccc2S(=O)(=O)c2c1cccc2[N+](=O)[O-]	2.1 µM (inactive)	3.01 µM (inactive)	3.45 µM (inactive)	1.61 µM (inactive)	1.59 µM (inactive)	2.15 µM (inactive)	1.25 µM (inactive)	5.85 µM (inactive)	1.35	5.32 µM (inactive)	1.51 µM (inactive)	4.66 µM (inactive)	1.9 µM (inactive)	> 10 µM (inactive)	2 µM (inactive)	5.77 µM (inactive)	2.29 µM (inactive)	2.12 µM (inactive)	2.2 µM (inactive)	2.9 µM (inactive)
CCC(=O)NI1OC(=O)c2ccccc21	> 100 µM (inactive)	> 100 µM (inactive)	> 100 µM (inactive)	> 100 µM (inactive)	> 100 µM (inactive)	> 100 µM (inactive)	> 100 µM (inactive)	> 100 µM (inactive)	43.5	> 100 µM (inactive)	40.9 µM (inactive)	> 100 µM (inactive)	> 100 µM (inactive)	48.5 µM (inactive)	> 100 µM (inactive)	> 100 µM (inactive)	> 100 µM (inactive)	> 100 µM (inactive)	> 100 µM (inactive)	> 100 µM (inactive)
O=c1[nH]nc(Cc2ccccc2)n1CCCl	> 100 µM (inactive)	> 100 µM (inactive)	> 100 µM (inactive)	> 100 µM (inactive)	> 100 µM (inactive)	> 100 µM (inactive)	> 100 µM (inactive)	> 100 µM (inactive)	> 100	> 100 µM (inactive)	> 100 µM (inactive)	> 100 µM (inactive)	> 100 µM (inactive)	> 100 µM (inactive)	> 100 µM (inactive)	> 100 µM (inactive)	> 100 µM (inactive)	> 100 µM (inactive)	> 100 µM (inactive)	90.8 µM (inactive)
CC1(C)[C@@H]2CC[C@@]1(C)CN(CCC[N+](C)(C)C)C2	> 100 µM (inactive)	> 100 µM (inactive)	> 100 µM (inactive)	> 100 µM (inactive)	> 100 µM (inactive)	> 100 µM (inactive)	> 100 µM (inactive)	> 100 µM (inactive)	> 100	> 100 µM (inactive)	> 100 µM (inactive)	> 100 µM (inactive)	> 100 µM (inactive)	> 100 µM (inactive)	> 100 µM (inactive)	> 100 µM (inactive)	> 100 µM (inactive)	> 100 µM (inactive)	> 100 µM (inactive)	> 100 µM (inactive)
CCNc1ncnc2nn[nH]c12	> 100 µM (inactive)	> 100 µM (inactive)		> 100 µM (inactive)	> 100 µM (inactive)	> 100 µM (inactive)	> 100 µM (inactive)	> 100 µM (inactive)	> 100	> 100 µM (inactive)	> 100 µM (inactive)	> 100 µM (inactive)	> 100 µM (inactive)	> 100 µM (inactive)	> 100 µM (inactive)	> 100 µM (inactive)	> 100 µM (inactive)	> 100 µM (inactive)	> 100 µM (inactive)	> 100 µM (inactive)
c1ccc(-c2nc3ccccc3n3c(CN4CCCCC4)nnc23)cc1	99.3 µM (inactive)	> 100 µM (inactive)	> 100 µM (inactive)	> 100 µM (inactive)	> 100 µM (inactive)		> 100 µM (inactive)	35.1 µM (inactive)	> 100	28.5 µM (inactive)	> 100 µM (inactive)	60 µM (inactive)	47.9 µM (inactive)	> 100 µM (inactive)	> 100 µM (inactive)	> 100 µM (inactive)	60 µM (inactive)	> 100 µM (inactive)	> 100 µM (inactive)	35.7 µM (inactive)
CCOS(C)(=O)=O [METHANESULFONIC ACID ETHYL ESTER]	> 100 µM (inactive)	> 100 µM (inactive)	> 100 µM (inactive)	> 100 µM (inactive)	> 100 µM (inactive)	> 100 µM (inactive)	> 100 µM (inactive)	> 100 µM (inactive)	> 100		> 100 µM (inactive)	> 100 µM (inactive)	> 100 µM (inactive)	> 100 µM (inactive)	> 100 µM (inactive)	> 100 µM (inactive)	> 100 µM (inactive)	> 100 µM (inactive)	> 100 µM (inactive)	> 100 µM (inactive)

From ChEMBL document CHEMBL1201862, “PubChem BioAssay data set” (2004)
